Source: patent publication US5811558A, “Process for the resolution of etodolac using glucamine derivatives” (priority 1994, dated 1998)
Counter-ions that a name gives are not always drawn.

Legend:
[1] = open randomised two way crossover pharmacokinetic study in healthy male volunteers, single oral dose; type: in vivo, human (healthy male volunteers); details: for half-life: t1/2
Procedure: (§1) An open randomised two way crossover study was conducted on a group of 13 healthy male volunteers to investigate the pharmacokinetics of the meglumine salt of (S)-etodolac and racemic etodolac (Lodine®); 11 volunteers received both treatments. Doses used were […] of the meglumine salt (equivalent to 100 mg of the free acid) and 200 mg of racemic etodolac. Blood samples were taken regularly.
The results of the pharmacokinetic study are shown in Table 1 and in FIGS. 1 and 2 below.
FIG. 1 is a graph of plasma concentration (μg/ml) of the (S)enantiomer for all volunteers receiving a single oral dose of 200 mg of racemic etodolac.
FIG. 2 is a graph of plasma concentration (μ/ml) of the (S) enantiomer for all volunteers receiving a single oral dose of 168 mg of the meglumine salt of (S)-etodolac (100 mg free acid equivalent).

[2] = design: species or system human (healthy male volunteers); details: human, in vivo
Procedure: as §1
Etodolac had no affect on vital signs, ECGs, physical examinations or on any clinical laboratory assessments, including serum biochemistry, haematology and urinalysis, when administered in either form.

[3] = free acid, Lee et al, J. Pharm. Sci. (1988); cited from earlier work

SMILES	peak plasma concentrations in words ([1]; human, in vivo)	tmax ([1]; human, in vivo, po) [h]	appearance in plasma in words ([1]; meglumine salt dosed orally)	t1/2 comparison in words ([1]; human, in vivo)	plasma concentrations of (R)-etodolac relative to (S)-etodolac ([1]; human, in vivo, po)	half-life ([1]; human, in vivo, po) [h]	tmax ([1]; human, in vivo, po, tmax) [h]	effect on vital signs, ECGs, physical examinations or clinical laboratory assessments (serum biochemistry, haematology, urinalysis) [2]	stability on heating under acidic conditions [3]
CCc1cccc2c3c([nH]c12)[C@](CC)(CC(=O)O)OCC3 [Meglumine salt of (S)-etodolac]	significantly higher	0.333	appears in the plasma very rapidly	–	–	–	–	–	–
CCc1cccc2c3c([nH]c12)[C@@](CC)(CC(=O)O)OCC3 [(R)-etodolac]	–	–	–	substantially eguivalent	about 10 times higher	~7	1.73	–	–
CCc1cccc2c3c([nH]c12)C(CC)(CC(=O)O)OCC3 (racemic) [racemic etodolac]	–	–	–	substantially eguivalent	–	7.14	1.67	no affect	leads to its decomposition
CCc1cccc2c3c([nH]c12)[C@](CC)(CC(=O)O)OCC3 [(S)-etodolac]	–	1.23	–	markedly lower	–	~2	–	–	–
